Assay results: patent publication US11117892B2, “Pyrrolo-pyridine derivative compound, method for preparing same, and pharmaceutical composition containing same as active ingredient for prevention or treatment of protein kinase-related diseases” (DAEGU-GYEONGBUK MEDICAL INNOVATION FOUNDATION, priority 2017, dated 2021)

What was measured:
Assay in all cases: scanMAX Kinase assay panel
Format in all cases: binding
Conditions in all cases: read-out: % control
[1] = target: ABL1(E255K)-phosphorylated (Homo sapiens (Human), UniProt P00519, E255K)
In short: (§1)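 Each compound is run against the kinase on the scanMAX selectivity panel. Its signal is then expressed relative to a DMSO negative control (100%) and a positive control compound (0%).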

[2] = target: ABL1(T315I)-nonphosphorylated (Homo sapiens (Human), UniProt P00519, T315I)
In short: as §1

ACVR2B = ACVR2B (Homo sapiens (Human), UniProt Q13705)
In short: as §1

ALK = ALK (Homo sapiens (Human), UniProt Q9UM73)
In short: as §1

ASK1 = ASK1 (Homo sapiens (Human), UniProt Q99683)
In short: as §1

BUB1 = BUB1 (Homo sapiens (Human), UniProt O43683)
In short: as §1

CHEK1 = CHEK1 (Homo sapiens (Human), UniProt O14757)
In short: as §1

CSNK1A1L = CSNK1A1L (Homo sapiens (Human), UniProt Q8N752)
CSNK1A1L, sequence (Q8N752 whole entry): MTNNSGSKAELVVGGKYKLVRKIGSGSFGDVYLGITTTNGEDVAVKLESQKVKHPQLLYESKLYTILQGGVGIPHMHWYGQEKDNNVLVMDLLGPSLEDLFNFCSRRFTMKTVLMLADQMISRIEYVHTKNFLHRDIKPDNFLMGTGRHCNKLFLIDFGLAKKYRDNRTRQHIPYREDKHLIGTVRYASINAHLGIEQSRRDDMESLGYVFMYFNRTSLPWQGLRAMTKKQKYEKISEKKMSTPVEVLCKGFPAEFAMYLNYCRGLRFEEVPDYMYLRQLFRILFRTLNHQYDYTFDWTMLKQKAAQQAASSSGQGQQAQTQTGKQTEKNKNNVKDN
In short: as §1

CSNK2A1 = CSNK2A1 (Homo sapiens (Human), UniProt P68400)
In short: as §1

EGFR(E746-A750del) = EGFR(E746-A750del) (Homo sapiens (Human), UniProt P00533, DEL746-750)
In short: as §1

EGFR(G719C) = EGFR(G719C) (Homo sapiens (Human), UniProt P00533, G719C)
In short: as §1

[3] = target: EGFR(L747-E749del, A750P) (Homo sapiens (Human), UniProt P00533, A750P/DEL747-749)
In short: as §1

EPHA2 = EPHA2 (Homo sapiens (Human), UniProt P29317)
In short: as §1

EPHA3 = EPHA3 (Homo sapiens (Human), UniProt P29320)
In short: as §1

EPHB6 = EPHB6 (Homo sapiens (Human), UniProt O15197)
In short: as §1

FER = FER (Homo sapiens (Human), UniProt P16591)
In short: as §1

FLT3(D835Y) = FLT3(D835Y) (Homo sapiens (Human), UniProt P36888, D835Y)
In short: as §1

JNK2 = JNK2 (Homo sapiens (Human), UniProt P45984)
In short: as §1

KIT-autoinhibited = KIT-autoinhibited (Homo sapiens (Human), UniProt P10721)
In short: as §1

LOK = LOK (Homo sapiens (Human), UniProt O94804)
In short: as §1

MAPKAPK2 = MAPKAPK2 (Homo sapiens (Human), UniProt P49137)
MAPKAPK2, sequence (P49137 whole entry): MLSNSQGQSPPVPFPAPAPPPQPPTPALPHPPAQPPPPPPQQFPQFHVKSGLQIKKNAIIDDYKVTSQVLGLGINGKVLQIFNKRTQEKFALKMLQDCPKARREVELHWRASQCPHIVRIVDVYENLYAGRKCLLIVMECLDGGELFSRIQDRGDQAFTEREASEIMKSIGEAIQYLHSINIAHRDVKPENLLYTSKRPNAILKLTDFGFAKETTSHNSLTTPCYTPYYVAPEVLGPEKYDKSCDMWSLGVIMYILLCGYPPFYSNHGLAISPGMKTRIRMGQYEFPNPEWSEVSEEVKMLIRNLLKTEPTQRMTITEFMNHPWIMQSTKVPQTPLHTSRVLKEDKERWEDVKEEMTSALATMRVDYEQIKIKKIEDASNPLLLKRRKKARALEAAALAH
In short: as §1

MEK6 = MEK6 (Homo sapiens (Human), UniProt P52564)
In short: as §1

MET(Y1235D) = MET(Y1235D) (Homo sapiens (Human), UniProt P08581, Y1235D)
In short: as §1

MLK3 = MLK3 (Homo sapiens (Human), UniProt Q16584)
In short: as §1

MYLK2 = MYLK2 (Homo sapiens (Human), UniProt Q9H1R3)
In short: as §1

NEK1 = NEK1 (Homo sapiens (Human), UniProt Q96PY6)
In short: as §1

NEK2 = NEK2 (Homo sapiens (Human), UniProt P51955)
NEK2, sequence (P51955 whole entry): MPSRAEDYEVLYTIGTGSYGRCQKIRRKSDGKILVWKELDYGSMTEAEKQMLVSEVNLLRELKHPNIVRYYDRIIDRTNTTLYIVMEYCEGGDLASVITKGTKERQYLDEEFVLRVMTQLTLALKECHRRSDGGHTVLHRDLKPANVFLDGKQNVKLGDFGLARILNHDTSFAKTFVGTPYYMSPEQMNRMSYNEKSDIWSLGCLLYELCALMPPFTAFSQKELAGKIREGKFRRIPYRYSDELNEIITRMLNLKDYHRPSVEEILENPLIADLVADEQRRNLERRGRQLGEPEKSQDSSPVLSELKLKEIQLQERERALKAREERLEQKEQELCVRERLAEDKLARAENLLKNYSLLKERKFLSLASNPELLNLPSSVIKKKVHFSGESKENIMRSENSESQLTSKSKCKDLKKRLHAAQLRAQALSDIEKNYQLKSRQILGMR
In short: as §1

NIM1 = NIM1 (Homo sapiens (Human), UniProt Q8IY84)
NIM1, sequence (Q8IY84 whole entry): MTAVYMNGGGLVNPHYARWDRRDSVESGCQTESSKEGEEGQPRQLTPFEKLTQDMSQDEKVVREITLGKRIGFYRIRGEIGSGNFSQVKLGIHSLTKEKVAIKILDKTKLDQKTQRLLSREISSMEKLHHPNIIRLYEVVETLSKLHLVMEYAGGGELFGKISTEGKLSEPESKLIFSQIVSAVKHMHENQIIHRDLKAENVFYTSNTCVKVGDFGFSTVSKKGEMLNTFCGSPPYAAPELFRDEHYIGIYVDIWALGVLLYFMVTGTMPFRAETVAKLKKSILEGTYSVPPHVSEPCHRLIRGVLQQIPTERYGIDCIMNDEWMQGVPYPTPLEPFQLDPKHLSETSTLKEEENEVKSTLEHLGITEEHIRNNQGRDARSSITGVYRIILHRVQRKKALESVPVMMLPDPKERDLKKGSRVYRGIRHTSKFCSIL
In short: as §1

PIK3C2B = PIK3C2B (Homo sapiens (Human), UniProt O00750)
In short: as §1

PIP5K2C = PIP5K2C (Homo sapiens (Human), UniProt Q8TBX8)
In short: as §1

PLK1 = PLK1 (Homo sapiens (Human), UniProt P53350)
In short: as §1

PRKD3 = PRKD3 (Homo sapiens (Human), UniProt O94806)
PRKD3, sequence (O94806 whole entry): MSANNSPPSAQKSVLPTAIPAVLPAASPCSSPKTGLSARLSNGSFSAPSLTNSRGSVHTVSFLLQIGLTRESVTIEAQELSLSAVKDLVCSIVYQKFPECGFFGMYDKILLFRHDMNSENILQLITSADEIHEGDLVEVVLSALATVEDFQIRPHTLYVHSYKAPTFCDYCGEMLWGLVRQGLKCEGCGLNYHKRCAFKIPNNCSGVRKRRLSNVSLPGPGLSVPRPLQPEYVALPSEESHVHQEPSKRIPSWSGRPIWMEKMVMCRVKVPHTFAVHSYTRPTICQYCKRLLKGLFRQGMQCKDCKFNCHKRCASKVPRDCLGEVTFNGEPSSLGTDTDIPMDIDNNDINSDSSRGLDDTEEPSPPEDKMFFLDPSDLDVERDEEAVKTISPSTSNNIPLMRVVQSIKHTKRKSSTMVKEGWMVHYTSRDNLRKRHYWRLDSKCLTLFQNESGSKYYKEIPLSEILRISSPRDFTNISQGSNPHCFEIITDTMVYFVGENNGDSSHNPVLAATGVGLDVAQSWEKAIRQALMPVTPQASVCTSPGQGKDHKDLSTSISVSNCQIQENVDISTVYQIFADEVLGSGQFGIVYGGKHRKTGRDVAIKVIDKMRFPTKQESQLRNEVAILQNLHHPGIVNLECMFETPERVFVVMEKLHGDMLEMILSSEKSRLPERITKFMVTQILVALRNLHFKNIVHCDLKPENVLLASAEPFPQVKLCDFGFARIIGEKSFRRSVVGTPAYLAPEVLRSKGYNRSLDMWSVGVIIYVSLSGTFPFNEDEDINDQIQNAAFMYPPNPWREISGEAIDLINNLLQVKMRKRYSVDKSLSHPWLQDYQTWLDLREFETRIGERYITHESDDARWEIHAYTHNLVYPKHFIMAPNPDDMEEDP
In short: as §1

ROCK1 = ROCK1 (Homo sapiens (Human), UniProt Q13464)
In short: as §1

[4] = target: RPS6KA4(Kin.Dom.2-C-terminal) (Homo sapiens (Human), UniProt O75676)
In short: as §1

SGK3 = SGK3 (Homo sapiens (Human), UniProt Q96BR1)
SGK3, sequence (Q96BR1 whole entry): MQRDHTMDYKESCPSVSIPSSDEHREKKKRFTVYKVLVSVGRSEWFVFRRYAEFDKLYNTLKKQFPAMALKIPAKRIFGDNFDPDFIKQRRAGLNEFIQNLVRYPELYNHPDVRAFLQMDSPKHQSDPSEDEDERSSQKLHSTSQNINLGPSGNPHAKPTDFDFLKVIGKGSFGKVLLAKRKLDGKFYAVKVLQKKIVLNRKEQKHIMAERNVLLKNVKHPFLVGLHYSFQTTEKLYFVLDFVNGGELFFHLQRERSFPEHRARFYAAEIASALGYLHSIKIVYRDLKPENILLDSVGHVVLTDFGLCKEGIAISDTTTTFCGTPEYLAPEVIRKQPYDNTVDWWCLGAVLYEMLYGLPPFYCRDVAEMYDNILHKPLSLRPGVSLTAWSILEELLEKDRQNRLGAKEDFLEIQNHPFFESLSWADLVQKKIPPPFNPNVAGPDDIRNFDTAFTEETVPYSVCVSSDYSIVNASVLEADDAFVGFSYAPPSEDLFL
In short: as §1

STK36 = STK36 (Homo sapiens (Human), UniProt Q9NRP7)
In short: as §1

TRPM6 = TRPM6 (Homo sapiens (Human), UniProt Q9BX84)
TRPM6, sequence (Q9BX84 whole entry): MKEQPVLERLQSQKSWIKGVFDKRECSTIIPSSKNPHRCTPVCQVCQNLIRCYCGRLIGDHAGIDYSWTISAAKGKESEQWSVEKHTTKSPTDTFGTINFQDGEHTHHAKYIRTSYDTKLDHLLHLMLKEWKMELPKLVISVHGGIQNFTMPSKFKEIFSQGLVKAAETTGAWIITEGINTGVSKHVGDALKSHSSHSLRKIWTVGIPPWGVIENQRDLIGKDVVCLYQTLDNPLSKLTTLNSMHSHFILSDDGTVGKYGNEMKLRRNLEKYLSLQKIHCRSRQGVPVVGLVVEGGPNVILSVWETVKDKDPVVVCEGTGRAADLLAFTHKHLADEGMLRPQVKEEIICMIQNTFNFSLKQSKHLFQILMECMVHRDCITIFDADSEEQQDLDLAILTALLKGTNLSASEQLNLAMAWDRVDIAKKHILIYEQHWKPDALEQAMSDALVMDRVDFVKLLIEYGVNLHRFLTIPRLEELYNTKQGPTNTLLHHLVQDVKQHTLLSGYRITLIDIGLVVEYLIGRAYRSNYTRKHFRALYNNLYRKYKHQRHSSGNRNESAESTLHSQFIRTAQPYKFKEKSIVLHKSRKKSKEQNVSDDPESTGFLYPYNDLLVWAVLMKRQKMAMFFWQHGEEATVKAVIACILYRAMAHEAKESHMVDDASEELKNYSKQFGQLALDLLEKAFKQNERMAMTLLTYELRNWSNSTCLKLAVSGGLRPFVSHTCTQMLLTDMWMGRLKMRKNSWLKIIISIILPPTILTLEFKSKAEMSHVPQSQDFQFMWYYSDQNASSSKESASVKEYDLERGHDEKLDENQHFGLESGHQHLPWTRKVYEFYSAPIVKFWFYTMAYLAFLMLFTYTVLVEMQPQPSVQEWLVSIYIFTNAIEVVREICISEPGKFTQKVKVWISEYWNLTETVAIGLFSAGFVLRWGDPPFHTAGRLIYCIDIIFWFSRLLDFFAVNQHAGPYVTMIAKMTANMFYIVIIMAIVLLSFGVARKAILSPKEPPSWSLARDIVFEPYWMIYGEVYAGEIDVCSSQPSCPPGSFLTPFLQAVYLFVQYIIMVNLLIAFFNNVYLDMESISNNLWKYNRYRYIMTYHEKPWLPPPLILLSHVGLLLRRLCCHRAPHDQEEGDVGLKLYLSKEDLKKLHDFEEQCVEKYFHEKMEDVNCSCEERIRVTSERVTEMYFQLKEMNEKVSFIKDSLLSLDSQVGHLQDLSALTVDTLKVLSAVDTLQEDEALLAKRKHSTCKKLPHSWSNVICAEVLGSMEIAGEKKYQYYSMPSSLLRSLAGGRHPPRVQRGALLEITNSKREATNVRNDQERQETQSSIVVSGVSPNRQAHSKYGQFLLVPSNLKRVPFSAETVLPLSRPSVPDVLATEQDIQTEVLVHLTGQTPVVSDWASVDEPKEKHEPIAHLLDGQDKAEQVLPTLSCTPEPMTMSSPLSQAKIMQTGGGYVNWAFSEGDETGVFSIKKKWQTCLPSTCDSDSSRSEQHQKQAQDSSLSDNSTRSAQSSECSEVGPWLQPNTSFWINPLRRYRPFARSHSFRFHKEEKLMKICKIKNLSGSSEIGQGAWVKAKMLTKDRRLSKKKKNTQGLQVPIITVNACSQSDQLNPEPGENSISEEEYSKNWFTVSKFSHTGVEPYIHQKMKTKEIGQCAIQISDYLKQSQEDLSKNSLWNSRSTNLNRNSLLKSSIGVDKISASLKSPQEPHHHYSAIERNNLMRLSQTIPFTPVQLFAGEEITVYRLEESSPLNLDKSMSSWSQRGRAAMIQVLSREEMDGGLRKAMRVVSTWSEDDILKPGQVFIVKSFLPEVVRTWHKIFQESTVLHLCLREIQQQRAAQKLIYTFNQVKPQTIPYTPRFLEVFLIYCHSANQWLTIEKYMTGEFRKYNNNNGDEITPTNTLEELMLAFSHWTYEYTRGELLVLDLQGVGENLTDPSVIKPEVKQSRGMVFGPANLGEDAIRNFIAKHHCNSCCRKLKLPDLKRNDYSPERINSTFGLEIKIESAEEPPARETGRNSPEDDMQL
In short: as §1

WEE2 = WEE2 (Homo sapiens (Human), UniProt P0C1S8)
In short: as §1

Row | SMILES | remaining binding at 1 µM [1] [%] | remaining binding at 1 µM [2] [%] | remaining binding at 1 µM (ACVR2B) [%] | remaining binding at 1 µM (ALK) [%] | remaining binding at 1 µM (ASK1) [%] | remaining binding at 1 µM (BUB1) [%] | remaining binding at 1 µM (CHEK1) [%] | remaining binding at 1 µM (CSNK1A1L) [%] | remaining binding at 1 µM (CSNK2A1) [%] | remaining binding at 1 µM (EGFR(E746-A750del)) [%] | remaining binding at 1 µM (EGFR(G719C)) [%] | remaining binding at 1 µM [3] [%] | remaining binding at 1 µM (EPHA2) [%] | remaining binding at 1 µM (EPHA3) [%] | remaining binding at 1 µM (EPHB6) [%] | remaining binding at 1 µM (FER) [%] | remaining binding at 1 µM (FLT3(D835Y)) [%] | remaining binding at 1 µM (JNK2) [%] | remaining binding at 1 µM (KIT-autoinhibited) [%] | remaining binding at 1 µM (LOK) [%] | also measured
1 | CCNc1cc(Nc2ccc(C(=O)N3CCC(N4CCOCC4)CC3)cc2OC)nc2[nH]cc(C(F)(F)F)c12 [Example 57, (4-((4-(ethylamino)-3-(trifluoromethyl)-1H-pyrrolo[2,3-b]pyridin-6-yl)amino)-3-methoxyphenyl) (4-morpholinopiperidin-1-yl)methanone] | 84 | 100 | 98 | 2.5 | 77 | 99 | 91 | 71 | 100 | 98 | 91 | 94 | 83 | 100 | 99 | 67 | 88 | 52 | 100 | 84 | remaining binding at 1 µM (MAPKAPK2): 51%; remaining binding at 1 µM (MEK6): 72%; remaining binding at 1 µM (MET(Y1235D)): 85%; remaining binding at 1 µM (MLK3): 80%; remaining binding at 1 µM (MYLK2): 85%; remaining binding at 1 µM (NEK1): 81%; remaining binding at 1 µM (NEK2): 94%; remaining binding at 1 µM (NIM1): 100%; remaining binding at 1 µM (PIK3C2B): 78%; remaining binding at 1 µM (PIP5K2C): 71%; remaining binding at 1 µM (PLK1): 100%; remaining binding at 1 µM (PRKD3): 78%; remaining binding at 1 µM (ROCK1): 100%; remaining binding at 1 µM [4]: 100%; remaining binding at 1 µM (SGK3): 100%; remaining binding at 1 µM (STK36): 98%; remaining binding at 1 µM (TRPM6): 97%; remaining binding at 1 µM (WEE2): 96%
2 | CCNc1cc(Nc2ccc(C(=O)N3CCC(N4CCOCC4)CC3)cc2OC)nc2[nH]cc(C#N)c12 [Example 18, 4-(ethylamino)-6-((2-methoxy-4-(4-morpholinopiperidine-1-carbonyl)phenyl)amino)-1H-pyrrolo[2,3-b]pyridine-3-carbonitrile] | 77 | 96 | 100 | 2.7 | 79 | 76 | 100 | 3.1 | 83 | 83 | 95 | 100 | 97 | 93 | 78 | 62 | 82 | 0.1 | 66 | 91 | remaining binding at 1 µM (MAPKAPK2): 21%; remaining binding at 1 µM (MEK6): 53%; remaining binding at 1 µM (MET(Y1235D)): 100%; remaining binding at 1 µM (MLK3): 99%; remaining binding at 1 µM (MYLK2): 72%; remaining binding at 1 µM (NEK1): 100%; remaining binding at 1 µM (NEK2): 100%; remaining binding at 1 µM (NIM1): 81%; remaining binding at 1 µM (PIK3C2B): 100%; remaining binding at 1 µM (PIP5K2C): 16%; remaining binding at 1 µM (PLK1): 41%; remaining binding at 1 µM (PRKD3): 9.6%; remaining binding at 1 µM (ROCK1): 9.1%; remaining binding at 1 µM [4]: 0.3%; remaining binding at 1 µM (SGK3): 79%; remaining binding at 1 µM (STK36): 98%; remaining binding at 1 µM (TRPM6): 87%; remaining binding at 1 µM (WEE2): 91%
